Laboratory results published in ChEMBL document CHEMBL1149847, “Erigeroflavanone, a flavanone derivative from the flowers of Erigeron annuus with protein glycation and aldose reductase inhibitory activity” (J Nat Prod, 2008).

Legend:
[1] = biological target: Aldo-keto reductase family 1 member B1 (Rattus norvegicus, UniProt P07943); assay: Inhibition of rat lens aldose reductase
[2] = Inhibition of advanced glycation end products formation after 14 days; assay type: physicochemical

| SMILES | IC50 [1] | IC50 [2] |
| --- | --- | --- |
| O=C(O)[C@H]1O[C@@H](Oc2cc(O)c3c(=O)cc(-c4ccc(O)cc4)oc3c2)[C@H](O)[C@@H](O)[C@@H]1O | 1.28 µM | 107 µM |
| COC(=O)[C@H]1O[C@@H](Oc2cc(O)c3c(=O)cc(-c4ccc(O)cc4)oc3c2)[C@H](O)[C@@H](O)[C@@H]1O | 9.02 µM | – |
| COC(=O)C[C@]1(O)C(=O)c2c(O)cc(O)cc2O[C@]1(OC)c1ccc(O)c(O)c1 (relative stereo) [ERIGEROFLAVANONE] | 46.9 µM | – |
| O=c1cc(-c2ccc(O)cc2)oc2cc(O)cc(O)c12 [APIGENIN] | 6.67 µM | 89.9 µM |
| O=c1c(O[C@@H]2O[C@H](CO)[C@@H](O)[C@H](O)[C@H]2O)c(-c2ccc(O)cc2)oc2cc(O)cc(O)c12 [ASTRAGALIN] | – | 179 µM |
| O=c1c(O)c(-c2ccc(O)cc2)oc2cc(O)cc(O)c12 [KAEMPFEROL] | 1.33 µM | – |
| N=C(N)NN [PIMAGEDINE] | – | 961 µM |
| C[C@@H]1O[C@@H](Oc2c(-c3ccc(O)c(O)c3)oc3cc(O)cc(O)c3c2=O)[C@H](O)[C@H](O)[C@H]1O [QUERCITRIN] | 0.16 µM | – |
